Measurements as given in ChEMBL document CHEMBL4507276 (2021).

Experiments:
Conditions in all cases: Compound concentration 1000.0 nM
[1] = tested on: Tyrosine-protein kinase ABL1 (Homo sapiens), P00519 [F317L]
[2] = tested on: Tyrosine-protein kinase ABL1 (Homo sapiens), P00519 [T315I]
[3] = target: T1, Mitogen-activated protein kinase kinase kinase 5 (Homo sapiens) (UniProt Q99683)
T1 sequence (whole entry): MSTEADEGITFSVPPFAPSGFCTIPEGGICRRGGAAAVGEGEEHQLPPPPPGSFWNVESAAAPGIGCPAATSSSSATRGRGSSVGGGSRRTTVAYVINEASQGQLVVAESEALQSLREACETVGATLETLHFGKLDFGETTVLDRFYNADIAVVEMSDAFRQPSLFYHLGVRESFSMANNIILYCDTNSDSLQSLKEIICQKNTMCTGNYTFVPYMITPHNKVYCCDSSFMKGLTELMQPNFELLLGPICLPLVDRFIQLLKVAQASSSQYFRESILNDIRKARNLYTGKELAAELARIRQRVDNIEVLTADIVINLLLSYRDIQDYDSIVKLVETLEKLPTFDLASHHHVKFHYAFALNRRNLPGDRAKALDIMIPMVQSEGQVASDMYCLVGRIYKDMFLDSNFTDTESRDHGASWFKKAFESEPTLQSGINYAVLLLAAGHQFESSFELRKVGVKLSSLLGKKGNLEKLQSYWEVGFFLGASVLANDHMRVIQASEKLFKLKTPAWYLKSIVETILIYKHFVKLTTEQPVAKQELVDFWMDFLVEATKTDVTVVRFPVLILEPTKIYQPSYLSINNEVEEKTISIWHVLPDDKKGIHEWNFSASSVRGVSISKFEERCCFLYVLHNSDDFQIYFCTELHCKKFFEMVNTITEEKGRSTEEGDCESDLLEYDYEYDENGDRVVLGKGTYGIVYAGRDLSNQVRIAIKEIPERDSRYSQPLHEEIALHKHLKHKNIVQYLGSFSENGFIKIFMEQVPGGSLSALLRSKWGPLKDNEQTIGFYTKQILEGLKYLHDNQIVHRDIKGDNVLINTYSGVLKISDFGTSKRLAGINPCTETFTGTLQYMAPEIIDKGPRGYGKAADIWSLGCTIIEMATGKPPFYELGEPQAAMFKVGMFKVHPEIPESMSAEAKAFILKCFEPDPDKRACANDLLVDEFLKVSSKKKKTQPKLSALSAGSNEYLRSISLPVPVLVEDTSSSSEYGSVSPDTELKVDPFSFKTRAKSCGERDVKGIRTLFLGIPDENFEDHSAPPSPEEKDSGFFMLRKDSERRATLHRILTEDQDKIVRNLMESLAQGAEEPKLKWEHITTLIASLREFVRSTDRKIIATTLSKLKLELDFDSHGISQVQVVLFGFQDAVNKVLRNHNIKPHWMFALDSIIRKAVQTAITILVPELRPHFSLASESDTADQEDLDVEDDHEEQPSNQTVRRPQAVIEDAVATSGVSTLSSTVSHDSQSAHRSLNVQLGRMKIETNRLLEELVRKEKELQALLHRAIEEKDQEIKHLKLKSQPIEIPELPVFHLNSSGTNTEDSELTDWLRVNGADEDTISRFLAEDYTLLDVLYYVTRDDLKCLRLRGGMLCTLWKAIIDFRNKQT

[4] = target: Tyrosine-protein kinase receptor UFO (Homo sapiens) (UniProt P30530)
Chain of Tyrosine-protein kinase receptor UFO (Homo sapiens) (P30530 whole entry): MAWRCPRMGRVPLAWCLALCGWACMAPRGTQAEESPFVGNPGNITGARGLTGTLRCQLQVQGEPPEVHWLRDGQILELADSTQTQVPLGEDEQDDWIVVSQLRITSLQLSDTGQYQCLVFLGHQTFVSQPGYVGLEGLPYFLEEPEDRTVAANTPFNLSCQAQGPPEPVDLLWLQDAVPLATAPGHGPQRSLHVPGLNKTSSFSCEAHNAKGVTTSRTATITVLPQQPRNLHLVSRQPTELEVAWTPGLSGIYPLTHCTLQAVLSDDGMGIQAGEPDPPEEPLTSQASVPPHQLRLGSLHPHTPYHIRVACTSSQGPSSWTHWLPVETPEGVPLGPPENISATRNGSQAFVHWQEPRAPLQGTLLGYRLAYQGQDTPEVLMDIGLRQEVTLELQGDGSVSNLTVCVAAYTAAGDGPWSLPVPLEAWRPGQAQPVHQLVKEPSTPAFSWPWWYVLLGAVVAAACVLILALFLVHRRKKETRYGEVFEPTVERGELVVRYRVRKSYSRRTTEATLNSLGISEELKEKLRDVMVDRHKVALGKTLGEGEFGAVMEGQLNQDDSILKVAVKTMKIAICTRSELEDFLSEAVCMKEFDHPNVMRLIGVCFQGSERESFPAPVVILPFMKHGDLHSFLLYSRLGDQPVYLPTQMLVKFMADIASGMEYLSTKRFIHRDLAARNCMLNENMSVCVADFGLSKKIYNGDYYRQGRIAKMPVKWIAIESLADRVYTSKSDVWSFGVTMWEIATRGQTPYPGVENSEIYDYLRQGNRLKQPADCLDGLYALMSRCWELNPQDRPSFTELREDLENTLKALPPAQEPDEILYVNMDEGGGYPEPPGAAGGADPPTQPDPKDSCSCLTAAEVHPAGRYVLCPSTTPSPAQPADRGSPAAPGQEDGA

[5] = tested on: Receptor-type tyrosine-protein kinase FLT3 (Homo sapiens), P36888 [UNDEFINED MUTATION]
Chain of Receptor-type tyrosine-protein kinase FLT3 (Homo sapiens), P36888 [UNDEFINED MUTATION] (P36888 whole entry, looked up, change not shown): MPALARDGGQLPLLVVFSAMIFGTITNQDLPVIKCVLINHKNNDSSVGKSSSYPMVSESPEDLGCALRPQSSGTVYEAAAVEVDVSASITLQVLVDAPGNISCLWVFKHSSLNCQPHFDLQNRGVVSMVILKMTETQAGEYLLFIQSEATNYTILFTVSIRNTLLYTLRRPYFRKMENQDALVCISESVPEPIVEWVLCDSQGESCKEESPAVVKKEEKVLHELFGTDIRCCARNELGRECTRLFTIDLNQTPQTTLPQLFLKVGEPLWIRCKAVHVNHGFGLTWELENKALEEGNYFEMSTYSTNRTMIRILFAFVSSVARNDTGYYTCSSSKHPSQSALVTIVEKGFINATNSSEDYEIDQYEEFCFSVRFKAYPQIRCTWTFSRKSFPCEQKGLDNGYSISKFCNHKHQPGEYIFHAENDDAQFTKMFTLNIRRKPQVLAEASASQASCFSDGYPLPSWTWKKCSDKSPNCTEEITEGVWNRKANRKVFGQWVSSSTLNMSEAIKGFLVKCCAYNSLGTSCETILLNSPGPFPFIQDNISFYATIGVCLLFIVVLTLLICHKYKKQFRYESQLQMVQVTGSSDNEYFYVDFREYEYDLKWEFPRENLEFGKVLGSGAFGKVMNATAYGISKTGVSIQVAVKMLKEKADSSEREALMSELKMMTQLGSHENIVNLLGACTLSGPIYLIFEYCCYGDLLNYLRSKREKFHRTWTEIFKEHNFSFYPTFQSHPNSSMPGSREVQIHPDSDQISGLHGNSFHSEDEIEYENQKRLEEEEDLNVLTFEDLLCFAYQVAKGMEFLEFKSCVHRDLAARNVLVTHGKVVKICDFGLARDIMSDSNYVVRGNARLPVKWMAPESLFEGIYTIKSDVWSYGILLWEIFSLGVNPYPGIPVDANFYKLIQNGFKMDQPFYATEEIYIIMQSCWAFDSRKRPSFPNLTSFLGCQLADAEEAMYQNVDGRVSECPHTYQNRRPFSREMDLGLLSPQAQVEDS

[6] = target: Tyrosine-protein kinase JAK2 (Homo sapiens) (UniProt O60674)
Chain of Tyrosine-protein kinase JAK2 (Homo sapiens) (O60674 whole entry): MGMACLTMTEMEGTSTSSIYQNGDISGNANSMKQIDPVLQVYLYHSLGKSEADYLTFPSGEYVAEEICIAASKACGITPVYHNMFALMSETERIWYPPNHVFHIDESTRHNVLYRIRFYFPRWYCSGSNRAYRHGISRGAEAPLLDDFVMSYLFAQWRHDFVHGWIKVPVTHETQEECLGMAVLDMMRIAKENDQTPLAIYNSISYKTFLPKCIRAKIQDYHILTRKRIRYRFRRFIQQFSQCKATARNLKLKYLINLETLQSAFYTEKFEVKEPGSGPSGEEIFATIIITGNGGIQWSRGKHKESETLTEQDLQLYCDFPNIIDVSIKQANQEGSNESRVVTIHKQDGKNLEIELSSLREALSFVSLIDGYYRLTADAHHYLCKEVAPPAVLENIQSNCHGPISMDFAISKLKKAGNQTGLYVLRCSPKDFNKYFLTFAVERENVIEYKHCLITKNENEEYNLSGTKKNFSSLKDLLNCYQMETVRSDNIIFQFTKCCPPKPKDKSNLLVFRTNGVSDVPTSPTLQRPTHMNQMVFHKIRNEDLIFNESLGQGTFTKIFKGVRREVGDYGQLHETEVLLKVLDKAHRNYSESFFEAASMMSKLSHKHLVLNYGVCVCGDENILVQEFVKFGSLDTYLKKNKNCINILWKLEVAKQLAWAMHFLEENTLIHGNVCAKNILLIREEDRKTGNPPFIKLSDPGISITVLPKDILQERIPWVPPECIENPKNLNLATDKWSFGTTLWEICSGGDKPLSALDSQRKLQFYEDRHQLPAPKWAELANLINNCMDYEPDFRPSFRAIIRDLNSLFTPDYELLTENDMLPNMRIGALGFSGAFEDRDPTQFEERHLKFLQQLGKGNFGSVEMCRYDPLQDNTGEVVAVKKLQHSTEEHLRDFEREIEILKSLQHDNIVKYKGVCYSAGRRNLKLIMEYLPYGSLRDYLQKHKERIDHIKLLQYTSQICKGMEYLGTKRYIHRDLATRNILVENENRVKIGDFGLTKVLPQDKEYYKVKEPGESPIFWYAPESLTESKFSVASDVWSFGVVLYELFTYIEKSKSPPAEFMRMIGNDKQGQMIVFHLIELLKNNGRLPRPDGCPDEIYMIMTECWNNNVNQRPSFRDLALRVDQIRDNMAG

[7] = target: Leukocyte tyrosine kinase receptor (Homo sapiens) (UniProt P29376)
Chain of Leukocyte tyrosine kinase receptor (Homo sapiens) (P29376 whole entry): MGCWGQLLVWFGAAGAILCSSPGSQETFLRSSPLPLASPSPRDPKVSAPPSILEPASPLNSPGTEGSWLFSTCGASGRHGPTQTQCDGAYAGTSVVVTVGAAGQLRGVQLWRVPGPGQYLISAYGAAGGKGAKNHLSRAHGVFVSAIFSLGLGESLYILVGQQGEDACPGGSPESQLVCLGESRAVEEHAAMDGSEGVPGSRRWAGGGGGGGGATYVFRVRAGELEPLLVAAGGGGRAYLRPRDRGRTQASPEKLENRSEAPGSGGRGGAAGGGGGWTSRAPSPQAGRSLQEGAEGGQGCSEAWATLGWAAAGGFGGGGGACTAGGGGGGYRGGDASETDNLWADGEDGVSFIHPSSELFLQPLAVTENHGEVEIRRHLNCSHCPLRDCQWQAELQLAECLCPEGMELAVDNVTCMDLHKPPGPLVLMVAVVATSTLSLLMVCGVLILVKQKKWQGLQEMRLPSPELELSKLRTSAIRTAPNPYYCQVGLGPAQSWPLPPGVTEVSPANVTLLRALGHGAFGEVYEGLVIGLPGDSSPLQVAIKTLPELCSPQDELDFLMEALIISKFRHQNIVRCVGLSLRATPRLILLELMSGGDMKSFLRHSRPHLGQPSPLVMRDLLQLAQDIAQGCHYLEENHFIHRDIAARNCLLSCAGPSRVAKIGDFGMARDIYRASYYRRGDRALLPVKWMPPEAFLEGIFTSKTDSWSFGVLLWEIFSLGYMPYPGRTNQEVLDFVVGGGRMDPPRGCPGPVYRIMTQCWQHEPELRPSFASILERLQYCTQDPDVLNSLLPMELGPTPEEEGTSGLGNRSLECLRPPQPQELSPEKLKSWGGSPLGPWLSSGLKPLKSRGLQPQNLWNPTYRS

[8] = target: Serine/threonine-protein kinase MARK2 (Homo sapiens) (UniProt Q7KZI7)
Chain of Serine/threonine-protein kinase MARK2 (Homo sapiens) (Q7KZI7 whole entry, canonical isoform): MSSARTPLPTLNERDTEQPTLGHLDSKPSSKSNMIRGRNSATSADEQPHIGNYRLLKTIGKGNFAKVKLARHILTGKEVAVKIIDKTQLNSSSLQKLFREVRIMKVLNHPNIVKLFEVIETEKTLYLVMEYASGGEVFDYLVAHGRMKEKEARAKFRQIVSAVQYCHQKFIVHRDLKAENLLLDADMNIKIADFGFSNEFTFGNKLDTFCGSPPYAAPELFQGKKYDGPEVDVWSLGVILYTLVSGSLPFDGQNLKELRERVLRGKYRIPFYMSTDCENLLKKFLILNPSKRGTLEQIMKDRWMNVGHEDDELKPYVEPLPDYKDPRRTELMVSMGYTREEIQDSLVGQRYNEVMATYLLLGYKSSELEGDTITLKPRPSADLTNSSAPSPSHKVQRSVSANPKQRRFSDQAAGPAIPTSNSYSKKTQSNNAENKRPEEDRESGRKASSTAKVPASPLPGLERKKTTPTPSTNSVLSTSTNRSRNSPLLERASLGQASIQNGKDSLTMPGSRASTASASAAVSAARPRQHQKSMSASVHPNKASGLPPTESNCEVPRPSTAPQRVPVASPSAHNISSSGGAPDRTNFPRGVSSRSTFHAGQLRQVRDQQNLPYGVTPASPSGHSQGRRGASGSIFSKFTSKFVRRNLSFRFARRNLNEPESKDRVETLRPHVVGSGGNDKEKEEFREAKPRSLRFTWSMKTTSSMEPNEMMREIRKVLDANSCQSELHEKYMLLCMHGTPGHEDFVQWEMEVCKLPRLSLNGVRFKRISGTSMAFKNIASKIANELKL

[9] = target: Phosphorylase b kinase gamma catalytic chain, skeletal muscle/heart isoform (Homo sapiens) (UniProt Q16816)
Chain of Phosphorylase b kinase gamma catalytic chain, skeletal muscle/heart isoform (Homo sapiens) (Q16816 whole entry, looked up, canonical isoform): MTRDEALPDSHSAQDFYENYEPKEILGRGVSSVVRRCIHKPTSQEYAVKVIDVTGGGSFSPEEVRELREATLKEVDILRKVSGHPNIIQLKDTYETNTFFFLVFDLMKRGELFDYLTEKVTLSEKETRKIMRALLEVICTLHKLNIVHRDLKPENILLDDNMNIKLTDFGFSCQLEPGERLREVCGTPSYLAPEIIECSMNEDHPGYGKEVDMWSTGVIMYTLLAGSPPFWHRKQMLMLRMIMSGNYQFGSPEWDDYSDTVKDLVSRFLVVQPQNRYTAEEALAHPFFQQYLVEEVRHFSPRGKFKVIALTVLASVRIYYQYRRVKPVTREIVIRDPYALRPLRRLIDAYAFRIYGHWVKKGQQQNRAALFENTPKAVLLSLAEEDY

[10] = target: T2, Protein kinase C iota type (Homo sapiens) (UniProt P41743)
T2 sequence (whole entry): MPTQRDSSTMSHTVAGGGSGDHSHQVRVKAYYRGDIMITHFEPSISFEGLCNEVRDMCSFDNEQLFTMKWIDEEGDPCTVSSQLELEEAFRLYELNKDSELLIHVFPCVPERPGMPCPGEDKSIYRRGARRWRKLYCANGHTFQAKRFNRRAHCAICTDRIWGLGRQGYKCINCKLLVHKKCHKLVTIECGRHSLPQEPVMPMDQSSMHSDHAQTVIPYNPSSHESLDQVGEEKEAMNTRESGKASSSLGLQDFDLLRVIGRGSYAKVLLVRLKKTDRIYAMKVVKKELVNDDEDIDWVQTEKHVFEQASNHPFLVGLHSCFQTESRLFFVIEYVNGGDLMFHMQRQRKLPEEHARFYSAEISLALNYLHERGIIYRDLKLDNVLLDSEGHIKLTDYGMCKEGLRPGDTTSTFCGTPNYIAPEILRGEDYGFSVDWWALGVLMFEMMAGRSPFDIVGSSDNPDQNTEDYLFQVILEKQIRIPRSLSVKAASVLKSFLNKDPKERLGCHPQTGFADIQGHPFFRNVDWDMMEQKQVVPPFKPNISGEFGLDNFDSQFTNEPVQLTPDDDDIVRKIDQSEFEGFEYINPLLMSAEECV

[11] = target: SRSF protein kinase 1 (Homo sapiens) (UniProt Q96SB4)

Measured: residual activity

CN(C)C(=O)Cn1cc(-c2nc(C3(c4ccc(-c5cnc(N)nc5)cc4)CC3)no2)cn1 [BI 0153]
inactive: [1] 85% | [2] 100% | [3] 91% | [4] 93% | [5] 85% | [6] 65% | [7] 90% | [8] 92% | [9] 97% | [10] 100% | [11] 93%

CN(C)C(=O)Cn1cc(-c2nc([C@@](C)(c3ccc(-c4cnc(N)nc4)cc3)C3CC3)no2)cn1 [BI 665915]
inactive: [1] 88% | [2] 90% | [3] 99% | [4] 98% | [5] 100% | [6] 73% | [7] 89% | [8] 100% | [9] 77% | [10] 93% | [11] 100%
